Reference: patent US20240307409A1, “ARGININE METHYLTRANSFERASE INHIBITOR AND USE THEREOF” (Cytosinlab Therapeutics Co., Ltd., priority 2021, published 2024)

Columns and labels:
Toledo cells = assay: Toledo cell proliferation inhibition assay; format: cell-based; settings: Homo sapiens, Toledo, 144 h; six-day assay, CellTiter-Glo
Method: • A. Purpose: to determine the effects of compounds on Toledo cells through a six-day cell proliferation assay. • B. Reagents and materials: • 1. Cell culture medium: RPMI 1640+10% FBS • 2. 384-well cell culture plate (Corning, item #3764) • 3. 0.4% Taipan Blue Staining Solution (Thermo Fisher, item #T10282) • 4. cell counting plate (Thermo Fisher, item #C10228) • 5. 50 ml reagent reservoir (Corning, item #4870) • 6. 50 ml conical sterile polypropylene centrifuge tube (Thermo Fisher, item #339653) • 7. Automatic cell counter (Thermo Fisher, item #AMQAX1000) • 8. CellTiter-Glo Luminescent Cell Viability Detection Reagent (Promega, item #G7572) • 9. SpectraMax i3x Multi-Mode Enzyme Labeling Instrument (Megaman Molecular Instruments, item #5024062) • C. Experimental method • 1. Resuspending the cells with a pipette. • 2. 0.4% Taipan blue staining solution and Toledo cells were mixed in equal proportion, and the cells were counted using an automatic cell counter. • 3. Toledo cells were diluted to a final concentration of 2000 cells per well and transferred to a 50 ml reagent reservoir. • 4. Diluted Toledo cells were added to a 384-well cell culture plate, 40 ul per well. • 5. The cells were shortly centrifuged and settled. • 6. The cells were incubated in a 37° C., 5% CO2 cell culture incubator. • 7. The substrate in the CellTiter-Glo Luminescent Cell Viability Detection Reagent was mixed with the solution. • 8. After six days, the 384-well cell culture plate was taken from the incubator and 20 ul of configured CellTiter-Glo reagent was added to each well. • 9. 384-well cell culture platewasmixed in an orbital shaker for 30 minutes. • 10. Signal of luminescence was detected with a SpectraMax i3x multi-mode enzyme labeling instrument.

PRMT1 = PRMT1 (Homo sapiens, UniProt Q99873); assay: PRMT1 enzyme activity test; format: biochemical; settings: 0.5 nM PRMT1, 3H-SAM, peptide
Method: PRMT1 enzyme activity test were performed in a buffer prepared on the same day 5 consisting of 10 mMTirs-HCl (pH=8.0), 0.01% Tween-20 and 1 mM DTT. The compounds were prepared to the highest inhibitor concentration ultimately required in the 100× reaction with 100% DMSO and then transferred to one well of a 384-well Echo plate (Echo-eligible 384-well polypropylene microplates 2.0, transparent, flat-bottomed) and sequentially diluted in the next well with a 3-fold dilution of 100% DMSO, and so on, with a total of 10 concentrations based on Precision. 100% DMSO was added to two empty wells to serve as control well without compound and control well without enzyme in the same 384-well Echo plate. 250 nL of compound was transferred from each well of the 384-well Echo plate to a 384-well assay plate (384-well polypropylene storage microplate) via the Echo 550 liquid processor. For wells with compounds and control well without compound, a mixture (15 uL) containing PRMT1 enzyme was added to the 384-well assay plate. For control wells without enzyme, the mixture containing the assay buffer (15 uL) was added instead. The compounds were allowed to incubate with PRMT1 for 15 minutes at room temperature, and then a mixture containing ^3H-SAM and peptide (10 uL) was added to start the reaction (final volume=25 uL). The final concentrations of the components were as follows: 0.5 nM for PRMT1, 0.25 uM for ^3H-SAM, 0.1 uM for the peptide, and 1% DMSO. After 120 min of incubation, the assay was terminated by the addition of non-radiolabeled SAM (5 uL) to a final concentration of 125 uM, which diluted 3H-SAM to a level at which its incorporation into the peptide substrate was no longer detected. 25 μL of the reaction solution from the 384-well assay plate was then transferred to a 384-well detection plate (Streptavidin FlashPlate HTS PLUS, high volume, 384 wells). The biotinylated peptide was allowed to bind to the surface of the antibiotic protein streptavidin for at least 60 minutes at room temperature. The Flashplate was then washed three times with 0.1% Tween-20 in a BioTek plate washer. Plates were read on a microplate counter (MicroBeta2) to measure the amount of ^3H-labeled peptide bound to the surface of the detection plate, measured in counts per minute (cpm).
The raw data were copied from the Reader and the inhibition values were calculated in Excel by Equation (1), Equation (1): Inh %=(CPMmax−CPMcmpd)/(CPMmax−CPMmin)*100, wherein the Max signal was obtained from the enzyme-substrate interaction and the Min signal was obtained from the substrate. IC50 values were obtained by fitting the data through equation (2) using XLFit add-in for Excel version […]. Equation (2): Y=Bottom+(Top-Bottom)/(1+((IC50/X)[…])), wherein, Y represents inhibition percentage and X represents compound concentration.

Sequence of PRMT1 (Q99873 whole entry): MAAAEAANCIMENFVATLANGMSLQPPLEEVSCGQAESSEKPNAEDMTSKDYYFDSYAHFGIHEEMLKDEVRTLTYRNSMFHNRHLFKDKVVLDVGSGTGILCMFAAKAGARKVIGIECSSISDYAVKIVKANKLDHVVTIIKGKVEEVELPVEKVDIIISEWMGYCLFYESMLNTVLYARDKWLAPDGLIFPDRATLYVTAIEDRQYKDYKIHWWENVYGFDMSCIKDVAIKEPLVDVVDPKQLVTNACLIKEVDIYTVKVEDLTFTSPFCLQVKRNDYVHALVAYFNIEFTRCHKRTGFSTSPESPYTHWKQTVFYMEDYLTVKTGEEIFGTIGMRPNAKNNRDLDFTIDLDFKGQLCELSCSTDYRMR

SMILES | IC50 (Toledo cells) | IC50 (PRMT1)
CNCCN(C)Cc1ncccc1C1CCN(c2cc(C)cc(CN(C)C)c2)CC1 [P082] | 1 to 5 µM | < 0.05 µM
CNCCN(C)Cc1cc(C(=O)NC)ccc1C1CCN(c2cccc(C)c2)CC1 [P159] | ≥ 5 µM | ≥ 0.5 µM
CNCCN(C)Cc1ncccc1C1CCN(c2ccncn2)CC1 [P287] | < 1 µM | < 0.05 µM
CCOC[C@H]1CC[C@@H](c2ccccc2CN(C)CCNC)CC1 [P048] | < 1 µM | < 0.05 µM
CNCCN(C)Cc1ccc(C(C)N)cc1C1CCc2cc(F)c(F)cc2CC1 (stereo not drawn) [P070] | < 1 µM | < 0.05 µM
CNCCN(C)Cc1ncccc1N1CCC(Oc2ccncc2)CC1 [P267] | 1 to 5 µM | < 0.05 µM
CNCCN(C)Cc1ccccc1C1=CCC2(CC1)CC(C)(C)CO2 (stereo not drawn) [P042] | < 1 µM | < 0.05 µM
CNCCN(C)Cc1ncccc1N1CCc2ccc(NC(C)=O)cc2CC1 [P270] | 1 to 5 µM | < 0.05 µM
CNCCN(C)Cc1ncccc1N1CCc2cnc(NC)nc2CC1 [P320] | ≥ 5 µM | < 0.05 µM
CNCCN(C)Cc1ncccc1C1CCN(c2ccnc(C)c2)CC1 [P193] | 1 to 5 µM | < 0.05 µM
CNCCN(C)Cc1ccc(F)cc1C1CCN(CCc2ccccc2)CC1 [P012] | < 1 µM | < 0.05 µM
CNCCN(C)Cc1ccc2nn(C)cc2c1C1CCc2cc(F)c(F)cc2CC1 [P104] | < 1 µM | < 0.05 µM
CNCCN(C)Cc1ccc(F)cc1N1CCCN(c2ccccc2)CC1 [P030] | ≥ 5 µM | < 0.05 µM
CNCCN(C)Cc1ncccc1C1CCCCC1 [P125] | < 1 µM | < 0.05 µM
CNCCN(C)Cc1ccc(F)cc1C1CCN(c2nc(C)cc(N3CCCC3)n2)CC1 [P151] | 1 to 5 µM | < 0.05 µM
CNCCN(C)Cc1ccncc1C1CCN(c2cccc(C)c2)CC1 [P097] | 1 to 5 µM | < 0.05 µM
CNCCN(C)Cc1ncccc1C1CCN(c2cccc3c2OCC3)CC1 [P164] | 1 to 5 µM | < 0.05 µM
CNCCN(C)Cc1ncccc1C1CCN(Cc2cccc(C)c2)CC1 [P077] | 1 to 5 µM | < 0.05 µM
CNCCN(C)Cc1ccc2[nH]nc(C)c2c1C1CCc2cc(F)c(F)cc2CC1 [P146, N1-((4-(2,3-difluoro-6,7,8,9-tetrahydro-5H-benzo[7]cyclopenten-7-yl)-3-methyl-1H-indazol-5-yl)methyl)-N1,N2-dimethylethane-1,2-diamine] | < 1 µM | < 0.05 µM
CNCCN(C)Cc1ccc(C)nc1C1CCN(c2cc(C)cc(F)c2)CC1 [P066] | < 1 µM | < 0.05 µM
CNCCN(C)Cc1ncccc1C1CCN(c2ccc(C(=O)N(C)C)cc2)CC1 [P192] | ≥ 5 µM | < 0.05 µM
CNCCN(C)Cc1ccc(C(N)=O)cc1C1CCN(c2cccc(C)c2)CC1 [P221] | < 1 µM | < 0.05 µM
CCOCC1(COCC)CC=C(c2ccccc2CN(C)CCNC)CC1 [P117] | < 1 µM | < 0.05 µM
CNCCN(C)Cc1ccc(C)nc1C1CCN(c2ccc(F)c(C)c2)CC1 [P065] | < 1 µM | < 0.05 µM
CNCCN(C)Cc1nc(C)ccc1C1CCN(CCc2ccc(C(F)(F)F)cc2)CC1 [P034] | < 1 µM | < 0.05 µM
CCOCC1(COCC)CCC(c2cc(F)cnc2CN(C)CCNC)CC1 [P196] | < 1 µM | < 0.05 µM
CNCCN(C)Cc1ncccc1N1CCC(N2CCCCC2)CC1 [P126] | 1 to 5 µM | < 0.05 µM

SMILES | IC50 (Toledo cells) | IC50 (PRMT1)
CNCCN(C)Cc1ncccc1N1CCC(NC2CCOCC2)CC1 [P263] | ≥ 5 µM | ≥ 0.5 µM
CNCCN(C)Cc1ccc(C)nc1C1CCN(c2cc(C)cc(C)c2)CC1 [P063] | < 1 µM | < 0.05 µM
CNCCN(C)Cc1ncccc1C1CCN(c2ncccn2)CC1 [P290] | 1 to 5 µM | < 0.05 µM
CNCCN(C)Cc1ccc2[nH]ncc2c1C1CCN(c2cccc(C)c2)CC1 [P190, N^1,N^2-dimethyl-N^1-((4-(1-(m-tolyl)piperidin-4-yl)-1H-indazol-5-yl)methyl)ethane-1,2-dia mine] | < 1 µM | < 0.05 µM
CNCCN(C)Cc1ccc(C(=O)NC)cc1C1CCN(c2cccc(C)c2)CC1 [P160] | < 1 µM | < 0.05 µM
CNCCN(C)Cc1ccc(F)cc1C1CCCN(c2ccccc2)CC1 (stereo not drawn) [P017] | 1 to 5 µM | < 0.05 µM
CNCCN(C)Cc1ncccc1N1CCc2nc(OC)cc(OC)c2CC1 [P304] | 1 to 5 µM | < 0.05 µM
CNCCN(C)Cc1ccc(C)nc1C1CCN(c2ccc(C#N)cc2)CC1 [P188] | 1 to 5 µM | < 0.05 µM
CNCCN(C)Cc1ccc(C)nc1C1CCN(c2ccc(F)c(Cl)c2)CC1 [P064] | < 1 µM | < 0.05 µM
CNCCN(C)Cc1ncccc1N1CC2CC(C1)c1ccccc12 [P119] | 1 to 5 µM | ≥ 0.5 µM
CNCCN(C)Cc1ncccc1N1CCC(COc2cnc(C)nc2)CC1 [P305] | < 1 µM | < 0.05 µM
CNCCN(C)Cc1ncccc1N1CCC(OCc2ccccc2)CC1 [P166] | < 1 µM | < 0.05 µM
CNCCN(C)Cc1ncccc1N1CCC(N2CCN(C(C)C)CC2)CC1 [P124] | 1 to 5 µM | ≥ 0.5 µM
CNCCN(C)Cc1ccc(F)cc1C1CCc2nc3ccccc3nc2CC1 [P132] | < 1 µM | < 0.05 µM
CNCCN(C)Cc1ccc(F)cc1C1CCN(C(=O)Cc2ccccc2)CC1 [P087] | 1 to 5 µM | < 0.05 µM
CNCCN(C)Cc1ccc(C)nc1C1CCN(c2ccc(F)cc2)CC1 [P086] | 1 to 5 µM | < 0.05 µM
CNCCN(C)Cc1ncccc1N1CCC(Oc2ccc(F)cc2)CC1 [P178] | < 1 µM | < 0.05 µM
CNCCN(C)Cc1nc2ccccc2cc1C1CCN(c2cccc(C)c2)CC1 [P046] | 1 to 5 µM | < 0.05 µM
CNCCN(C)Cc1ncccc1N1CCC(N2CCCC(C(=O)NC)C2)CC1 (stereo not drawn) [P276] | ≥ 5 µM | ≥ 0.5 µM
CNCCN(C)Cc1ncccc1C1CCN(c2cccc(C(=O)NC)c2)CC1 [P254] | ≥ 5 µM | 0.05 to 0.5 µM
CNCCN(C)Cc1ncccc1N1CCc2nc(C)nc(C)c2CC1 [P280] | ≥ 5 µM | < 0.05 µM
CNCCN(C)Cc1ccc(-c2cn[nH]c2)cc1C1CCc2cc(F)c(F)cc2CC1 [P135] | < 1 µM | < 0.05 µM
CNCCN(C)Cc1ncccc1N1CCC(Oc2ccc(-n3ccnc3)cc2)CC1 [P259] | 1 to 5 µM | < 0.05 µM
CCC1(C(=O)NC)CCN(c2cccnc2CN(C)CCNC)CC1 [P300] | ≥ 5 µM | 0.05 to 0.5 µM
CNCCN(C)Cc1ncccc1N1CCC(Nc2ccncn2)CC1 [P319] | ≥ 5 µM | < 0.05 µM
CNCCN(C)Cc1ccc(C)nc1C1CCN(c2cccc(Cl)c2)CC1 [P073] | < 1 µM | < 0.05 µM
CNCCN(C)Cc1ncc(N)nc1C1CCN(c2cccc(C)c2)CC1 [P292, N-((5-amino-3-(1-(m-tolyl)piperidin-4-yl)pyrazin-2-yl)methyl)-N,N′-dimethyl-1,2-ethyle nediamine] | < 1 µM | < 0.05 µM
